Assay results: publication PMC5126668 (PeerJ, 2016)
Several values for one entry are separate records, joined by “and”; a condition that tells them apart may be missing. Identical values can stand only once. Like-named read-outs stand apart in the source and are kept apart here.

Assays:
[1] = Toxicokinetics of BAK in rat plasma after a single oral dose; type: in vivo, Sprague–Dawley rats
Procedure: ABT, a broad-spectrum nonspecific CYP inhibitor, was selected as a positive control inhibitor of CYP enzymes. Aristolochic acid A (AA I) was selected as the nephrotoxicity positive control in the study.
The plasma samples were separated by centrifugation at 4000 rpm for 15 min. […] Subsequently, 10 µL of internal standard solution (tanshinone II A, 10 µg/mL) and 0.3 mL of acetonitrile were added to 0.1 mL of plasma or homogenates, and centrifuged at 13,300 rpm for 15 min after 2 min of vortexing. The supernatant was reconstituted in 100 µL of mobile phase after drying under 40 °C nitrogen, the mixture then was vortexed for 5 min and centrifuged at 13,300 rpm for 15 min. Finally, 20 µL of supernatant was injected for HPLC analysis.
The mobile phase consisted of methanol and water with 0.1% formic acid (89:11, v/v) and was supplied at a flow rate of 0.8 mL/min. The detection wavelength was set to 262 nm.

BAK metabolism in HLMs = assay: Metabolic elimination of BAK in HLMs and its inhibition by GA (HPLC); type: in vitro ADME, human; conditions: for Remaining percentage of BAK (%) / remaining of BAK (%), single samples: BAK 10 µM; for Remaining percentage of BAK (%): HLMs 0.5 g/L, mean; for remaining of BAK (%), single samples: t=30 min
Procedure: The HLM mixtures were prepared on ice. […] At the end of the incubation (0 or 30 min), 200 µL of methanol-acetonitrile (1:1, V:V) solution containing tanshinone II A (internal standard) was added to terminate the reaction. The mixtures were then vortexed for 2 min followed by centrifugation at 14,500 rpm for 10 min. A 10 µL aliquot of the supernatant was then injected for HPLC analysis. […] RContr is the percentage of BAK remaining in the BAK group.

HK-2 cells = assay: HK-2 cell viability, MTT assay, with or without co-cultured HLMs; type: cell-based, human; conditions: BAK combined with GA
Procedure: HK-2 cells obtained from Peking Union Medical College were maintained in D/F12 medium containing 10% fetal bovine serum, 2 mM glutamine and 1 × 10^5 U/L penicillin and streptomycin at 37 °C in a 5% CO2 atmosphere. […] The samples containing HLMs were prepared in an ice bath, and three replicates were tested for each dose. In brief, HK-2 cells (100 µL) were seeded at 3 × 10^5cells/mL in 96-well plates. After 12 h, 200 µL of the test compound was added. For the BAK and GA with HLMs group, GA was pre-incubated with NADPH in HLMs for 30 min at 37 °C and then mixed with BAK; for the other groups, all tested compounds except NADPH were mixed, and NADPH was then added to start the metabolic reaction. After 4 h of culture, 100 µL of 0.5 g/L MTT was added, and the cells were cultured for 4 h. Subsequently, 150 µL of 4% isopropanol was added to cells for 15 min at 37 °C, and the absorbance at 570 nm was then read by a microplate reader (Multiskan MK3, Thermo, USA). The relative cell viability (%) was calculated as follows: Mean Absorbance of Sample/Mean Absorbance of Vehicle Control × 100%.

[2] = Sprague-Dawley, plasma, rat, single oral, BAK 200 mg/kg, with ABT or GA 100 mg/kg where named
[3] = rat, single oral, BAK 200 mg/kg, with ABT or GA 100 mg/kg where named

Compound: C=C[C@@](C)(/C=C/c1ccc(O)cc1)CCC=C(C)C [BAK, Bakuchiol]
- BAK concentration in rat plasma, single rats 1-5 ([1]; 0.083 h after single oral dose): 19.440 ng/mL and 20.126 ng/mL and 124.551 ng/mL and 203.437 ng/mL and 45.002 ng/mL
- BAK concentration in rat plasma, single rats 1-5 ([1]; 0.500 h after single oral dose): 298.348 ng/mL and 315.739 ng/mL and 248.132 ng/mL and 249.198 ng/mL
- BAK concentration in rat plasma, single rats 1-5 ([1]; 1.000 h after single oral dose): 370.910 ng/mL and 622.012 ng/mL and 388.077 ng/mL and 359.422 ng/mL and 237.838 ng/mL
- BAK concentration in rat plasma, single rats 1-5 ([1]; 2.000 h after single oral dose): 741.835 ng/mL and 1388.336 ng/mL and 509.873 ng/mL and 610.667 ng/mL and 641.059 ng/mL
- BAK concentration in rat plasma, single rats 1-5 ([1]; 4.000 h after single oral dose): 1167.913 ng/mL and 614.550 ng/mL and 628.766 ng/mL and 924.718 ng/mL
- BAK concentration in rat plasma, single rats 1-5 ([1]; 8.000 h after single oral dose): 297.448 ng/mL and 580.240 ng/mL and 453.584 ng/mL and 180.567 ng/mL and 336.676 ng/mL
- BAK concentration in rat plasma, single rats 1-5 ([1]; 12.00 h after single oral dose): 101.667 ng/mL and 221.273 ng/mL and 140.087 ng/mL and 93.481 ng/mL and 214.562 ng/mL
- BAK concentration in rat plasma, single rats 1-5 ([1]; 24.00 h after single oral dose): 76.407 ng/mL and 58.961 ng/mL and 54.579 ng/mL and 73.723 ng/mL
- Cmax [1, 2]: 887 ± 281 ng/mL
- MRT [1, 2]: 6.79 ± 0.43 h
- Tmax [1, 2]: 3.6 ± 0.89 h
- AUC(0-t) ([1]; Sprague-Dawley, plasma, rat, single oral, BAK 200 mg/kg, with ABT or GA 100 mg/kg where named, read-out: AUC0−24 of BAK): 7260 ng·h/mL
- concentration at 0.083 h ([1]; Sprague-Dawley, rat, plasma, po, 200 mg/kg, 0.083 h after single oral dose): 82.5 ng/mL
- concentration at 0.5 h ([1]; Sprague-Dawley, rat, plasma, po, 200 mg/kg, 0.500 h after single oral dose, read-out: BAK concentration in rat plasma, mean): 273 ng/mL
- concentration at 0.5 h ([1]; Sprague-Dawley, rat, plasma, po, 200 mg/kg, 0.500 h after single oral dose, read-out: BAK concentration in rat plasma, single rats 1-5): 256 ng/mL
- concentration at 1 h ([1]; Sprague-Dawley, rat, plasma, po, 200 mg/kg, 1.000 h after single oral dose): 396 ng/mL
- concentration at 2 h ([1]; Sprague-Dawley, rat, plasma, po, 200 mg/kg, 2.000 h after single oral dose): 778 ng/mL
- concentration at 4 h ([1]; Sprague-Dawley, rat, plasma, po, 200 mg/kg, 4.000 h after single oral dose, read-out: BAK concentration in rat plasma, mean): 843 ng/mL
- concentration at 4 h ([1]; Sprague-Dawley, rat, plasma, po, 200 mg/kg, 4.000 h after single oral dose, read-out: BAK concentration in rat plasma, single rats 1-5): 881 ng/mL
- concentration at 8 h ([1]; Sprague-Dawley, rat, plasma, po, 200 mg/kg, 8.000 h after single oral dose): 370 ng/mL
- concentration at 12 h ([1]; Sprague-Dawley, rat, plasma, po, 200 mg/kg, 12.00 h after single oral dose): 154 ng/mL
- concentration at 24 h ([1]; Sprague-Dawley, rat, plasma, po, 200 mg/kg, 24.00 h after single oral dose, read-out: BAK concentration in rat plasma, mean): 68.1 ng/mL
- concentration at 24 h ([1]; Sprague-Dawley, rat, plasma, po, 200 mg/kg, 24.00 h after single oral dose, read-out: BAK concentration in rat plasma, single rats 1-5): 76.9 ng/mL
- concentration at 24 h ([1]; Sprague-Dawley, rat, plasma, po, 200 mg/kg, rat, 24 h after single oral dose, read-out: Exposure of BAK, Plasma, mean): 68.1 ng/g
- concentration at 24 h ([1]; Sprague-Dawley, rat, plasma, po, 200 mg/kg, rat, 24 h after single oral dose, read-out: Exposure of BAK, Plasma, single rats): 76.9 ng/g
- Exposure of BAK, Plasma, single rats ([1]; rat, 24 h after single oral dose): 0.0764 µg/g and 0.0590 µg/g and 0.0546 µg/g and 0.0737 µg/g
- CL of BAK [1, 3]: 470 ± 132 mL/min/kg
- V of BAK [1, 3]: 184.2 ± 58.6 L/kg
- t1∕2 of BAK [1, 3]: 4.71 ± 1.56 h
- 30min BAK metabolic percentage (%) (BAK metabolism in HLMs; BAK 10 µM alone, HLMs, 30 min): 36.51%
- Remaining percentage of BAK (%) (BAK metabolism in HLMs; GA 0 µM, 30 min): 63.49 ± 6.05% and 63.49%
- Remaining percentage of BAK (%) (BAK metabolism in HLMs; GA 12.5 µM, 30 min): 71.60 ± 6.40% and 71.60%
- remaining of BAK (%), single samples (BAK metabolism in HLMs; GA 12.5 µM): 64.61% and 73.02% and 77.17%
- Remaining percentage of BAK (%) (BAK metabolism in HLMs; GA 62.5 µM, 30 min): 80.10 ± 6.81 % and 80.10%
- remaining of BAK (%), single samples (BAK metabolism in HLMs; GA 62.5 µM): 85.51% and 72.46% and 82.34%
- remaining of BAK (%), single samples (BAK metabolism in HLMs; GA 93.75 µM): 73.93% and 93.16% and 104.23%
- Remaining percentage of BAK (%) (BAK metabolism in HLMs; GA 125.0 µM, 30 min): 97.24 ± 1.46 % and 97.24%
- remaining of BAK (%), single samples (BAK metabolism in HLMs; GA 125 µM): 98.81% and 95.94% and 96.96%
- remaining of BAK (%), single samples (BAK metabolism in HLMs; no GA, HLM 0.5 mg/ml): 56.87% and 64.87% and 68.72%
- decreases in viability of HK-2 cells (HK-2 cells): 25∼40%
